We go through 17 molecules from paper PMC2641037 (Pharmacogenetics and genomics, 2009).

Structures can show the parent of a compound that is named as a salt. Where two headings read alike, the source gives them in different places.

Data set [1] has as its target T1, OATP2B1 (Homo sapiens, UniProt O94956).
T1 sequence (O94956 1-709): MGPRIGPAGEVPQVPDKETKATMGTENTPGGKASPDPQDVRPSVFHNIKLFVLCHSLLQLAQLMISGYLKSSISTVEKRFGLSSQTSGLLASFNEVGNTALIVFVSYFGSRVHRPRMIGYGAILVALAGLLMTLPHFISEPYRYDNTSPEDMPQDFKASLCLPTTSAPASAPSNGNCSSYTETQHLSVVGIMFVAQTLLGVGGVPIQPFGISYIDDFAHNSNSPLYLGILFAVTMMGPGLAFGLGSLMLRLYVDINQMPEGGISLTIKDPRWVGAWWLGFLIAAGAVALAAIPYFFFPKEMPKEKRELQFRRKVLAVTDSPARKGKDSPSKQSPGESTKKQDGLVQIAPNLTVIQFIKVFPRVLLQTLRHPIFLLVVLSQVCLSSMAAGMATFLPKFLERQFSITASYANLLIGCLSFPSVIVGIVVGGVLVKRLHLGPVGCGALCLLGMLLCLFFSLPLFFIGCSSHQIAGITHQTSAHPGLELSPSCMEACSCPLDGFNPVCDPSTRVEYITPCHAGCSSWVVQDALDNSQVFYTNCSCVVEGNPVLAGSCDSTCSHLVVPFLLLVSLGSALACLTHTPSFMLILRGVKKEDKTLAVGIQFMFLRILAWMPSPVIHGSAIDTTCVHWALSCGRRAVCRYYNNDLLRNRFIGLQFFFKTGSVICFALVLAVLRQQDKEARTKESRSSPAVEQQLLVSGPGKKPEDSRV
The experiment in a line: Permeability in OATP2B1 expressing MDCKII cell line. As to conditions: basolateral → apical, pH 7.5, 1 h 37°C.

In data set [2] the target is MDR1 (Homo sapiens, UniProt P08183). As to the kind of experiment: ATP consumption by membrane preparations containing MDR1. The format is biochemical. As to conditions: data not shown.
For data set [3] the following is noted: weak acid; cited from earlier work.
For data set [4] the following is noted: cited from earlier work.
The conditions of data set [5]: can approach; cited from earlier work.
Data set [6] concerns Caco-2 cells. The following applies: for Papp±SD of montelukast (% of control) / effect on permeability of montelukast: 125 µM competitor; for Papp±SD of montelukast (% of control) / montelukast permeability, % of control: Caco-2; for Papp±SD of montelukast (% of control): control without additional drug; for effect on permeability of montelukast: Caco-2, p<0.05. On the technique in general: Passage across Caco-2 layers is used to estimate intestinal permeability.

The test system of data set [7] is OATP2B1. The following applies: up; substrate dependent; cited from earlier work.

Chain of MDR1 (P08183 whole entry, species assumed): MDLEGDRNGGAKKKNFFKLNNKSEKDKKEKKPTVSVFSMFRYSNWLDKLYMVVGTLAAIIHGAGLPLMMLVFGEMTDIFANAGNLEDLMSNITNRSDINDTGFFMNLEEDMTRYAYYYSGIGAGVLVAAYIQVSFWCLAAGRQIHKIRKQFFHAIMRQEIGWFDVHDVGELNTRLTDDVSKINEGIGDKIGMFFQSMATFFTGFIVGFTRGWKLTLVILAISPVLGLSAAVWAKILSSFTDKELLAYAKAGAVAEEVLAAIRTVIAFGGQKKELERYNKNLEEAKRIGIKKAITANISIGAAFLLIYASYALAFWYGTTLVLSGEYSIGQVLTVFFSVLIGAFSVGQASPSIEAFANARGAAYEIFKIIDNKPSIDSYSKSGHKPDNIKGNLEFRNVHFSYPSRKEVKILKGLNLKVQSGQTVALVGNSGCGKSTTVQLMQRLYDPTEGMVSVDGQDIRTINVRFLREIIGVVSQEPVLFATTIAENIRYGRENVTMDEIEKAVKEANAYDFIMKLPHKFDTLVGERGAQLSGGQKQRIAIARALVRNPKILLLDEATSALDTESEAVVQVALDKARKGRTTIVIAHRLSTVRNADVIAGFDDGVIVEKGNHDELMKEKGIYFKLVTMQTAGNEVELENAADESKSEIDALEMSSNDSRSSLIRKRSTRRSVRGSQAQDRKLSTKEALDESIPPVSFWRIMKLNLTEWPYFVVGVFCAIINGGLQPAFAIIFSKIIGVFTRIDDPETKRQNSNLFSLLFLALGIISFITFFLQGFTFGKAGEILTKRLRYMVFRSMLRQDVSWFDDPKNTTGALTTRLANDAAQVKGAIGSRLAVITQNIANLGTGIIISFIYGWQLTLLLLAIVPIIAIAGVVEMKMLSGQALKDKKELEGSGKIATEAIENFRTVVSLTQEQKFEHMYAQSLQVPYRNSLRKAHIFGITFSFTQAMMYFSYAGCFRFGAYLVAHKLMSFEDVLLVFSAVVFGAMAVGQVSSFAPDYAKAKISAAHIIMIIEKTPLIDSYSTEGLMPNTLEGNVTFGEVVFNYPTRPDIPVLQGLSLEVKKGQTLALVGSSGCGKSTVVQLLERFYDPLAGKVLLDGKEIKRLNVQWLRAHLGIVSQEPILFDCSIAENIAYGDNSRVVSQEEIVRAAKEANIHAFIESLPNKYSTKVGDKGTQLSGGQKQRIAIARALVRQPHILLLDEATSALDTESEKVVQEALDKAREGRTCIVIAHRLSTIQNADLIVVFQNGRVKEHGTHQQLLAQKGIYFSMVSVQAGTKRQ

With `C[C@]12CC[C@@H]3c4ccc(OS(=O)(=O)[O-])cc4CC[C@H]3[C@@H]1CCC2=O.[Na+]` [Estrone 3-sulfate, estrone 3-sulfate, sodium salt], the “enhancement of permeability in OATP2B1 expressing cell line relative to control” value in data set [1] is given as 280±40%.

A word on the pKa: it is the negative logarithm of the acid dissociation constant. As for `CC(C)(O)c1ccccc1CC[C@@H](SCC1(CC(=O)O)CC1)c1cccc(/C=C/c2ccc3ccc(Cl)cc3n2)c1` [montelukast, Montelukast], in data set [2], the “stimulation of ATP consumption by MDR1 membrane preparations” value is recorded as “does not stimulate ATP consumption”. Besides, in data set [3], the pKa is 5.7. Further, in data set [4], the “binding to plasma albumin” value is “highly bound”. Moreover, in data set [5], the poor response rate was 60 to 70%. Further, the “permeability in MDCKII-OATP2B1, % of control (parental MDCKII)” value in data set [1] is 140±20 % of control. With `NS(=O)(=O)c1cc(C(=O)O)c(NCc2ccco2)cc1Cl` [Furosemide, furosemide], in data set [6], the “Papp±SD of montelukast (% of control)” value was 95±8 % of control.

On to `C[C@H](CCC(=O)O)[C@H]1CC[C@H]2[C@@H]3[C@H](O)C[C@@H]4C[C@H](O)CC[C@]4(C)[C@H]3CC[C@]12C` [Chenodeoxycholic acid, chenodeoxycholic acid, sodium salt], for which, in data set [6], the “Papp±SD of montelukast (% of control)” value was 90±10 % of control. For the molecule `CC[C@H](C)C(=O)O[C@H]1C[C@H](O)C=C2C=C[C@H](C)[C@H](CC[C@@H](O)C[C@@H](O)CC(=O)O)[C@H]21` [Pravastatin, pravastatin], in data set [6], the “effect on permeability of montelukast” value is given as “cis-inhibit permeability” and the “Papp±SD of montelukast (% of control)” value is on record as 83±8 % of control. The corresponding values for `CN/C(=N/CCSCc1nc[nH]c1C)NC#N` [Cimetidine, cimetidine] are “enhance permeability” and 120±10 % of control. `O=c1c(-c2ccc(O)cc2)coc2cc(O)cc(O)c12` [Genistein, genistein]: in data set [6], the “Papp±SD of montelukast (% of control)” value is on record as 110±10 % of control. Consider `O=S(=O)(O)c1cc(N=C=S)ccc1C=Cc1ccc(N=C=S)cc1S(=O)(=O)O` [DIDS, 4,4'-Diisothiocyanostilbene-2,2'-disulfonic acid], for which the “Papp±SD of montelukast (% of control)” value in data set [6] was 100±20 % of control. On the same count and under the same terms, the same measure for `CCCN(CCC)S(=O)(=O)c1ccc(C(=O)O)cc1` [Probenecid, probenecid]: 90±10 % of control; for `C=C(CC)C(=O)c1ccc(OCC(=O)O)c(Cl)c1Cl` [Ethacrynic acid, ethacrynic acid]: 100±10 % of control.

As to `C[C@H](CCC(=O)NCCS(=O)(=O)O)[C@H]1CC[C@H]2[C@@H]3[C@H](O)C[C@@H]4C[C@H](O)CC[C@]4(C)[C@H]3C[C@H](O)[C@]12C` [Taurocholic acid, taurocholic acid, sodium salt], in data set [6], the “effect on permeability of montelukast” value is “cis-inhibit permeability” and the “Papp±SD of montelukast (% of control)” value is listed as 84±9 % of control.

In the case of `O=C1OC(c2ccc(O)c(S(=O)(=O)O)c2)(c2ccc(O)c(S(=O)(=O)O)c2)c2c(Br)c(Br)c(Br)c(Br)c21` [Sulfobromophthalein, sulfobromophthalein], in data set [6], the “effect on permeability of montelukast” value is recorded as “cis-inhibit permeability” and the “Papp±SD of montelukast (% of control)” value was 72±7 % of control.

Regarding `C[C@H](CCC(=O)O)[C@H]1CC[C@H]2[C@@H]3CC[C@@H]4C[C@H](O)CC[C@]4(C)[C@H]3C[C@H](O)[C@]12C` [Deoxycholic acid, deoxycholic acid, sodium salt], the “Papp±SD of montelukast (% of control)” value in data set [6] is 110±10 % of control.

`CN(C)C(=O)CCSC(SCCC(=O)O)c1cccc(/C=C/c2ccc3ccc(Cl)cc3n2)c1` (stereo not drawn) [MK571, MK571, sodium salt]: in data set [6], the “effect on permeability of montelukast” value was “enhance permeability” and the “Papp±SD of montelukast (% of control)” value was 130±10 % of control.

For `Nc1nc2ncc(CNc3ccc(C(=O)N[C@@H](CCC(=O)O)C(=O)O)cc3)nc2c(=O)[nH]1` [Folic acid, folic acid], in data set [6], the “effect on permeability of montelukast” value is “enhance permeability” and the “Papp±SD of montelukast (% of control)” value was 130±20 % of control. `CC(=O)[C@H]1CC[C@H]2[C@@H]3CCC4=CC(=O)CC[C@]4(C)[C@H]3CC[C@]12C` [progesterone]: the “montelukast permeability, % of control” value in data set [6] (5 µM progesterone in donor reservoir) was 150±10 % of control; in data set [6] (15 µM progesterone in donor reservoir), 140±10 % of control; in data set [6] (30 µM progesterone in donor reservoir) it was 160±10 % of control. The “allosteric activation of OATP2B1 transport of estrone-3-sulfate” value in data set [7] was “up to 300%”. Consider `CCCCNc1cc(C(=O)O)cc(S(N)(=O)=O)c1Oc1ccccc1` [Bumetanide, bumetanide], for which the “Papp±SD of montelukast (% of control)” value in data set [6] is listed as 100±10 % of control.
